Key:
[1] = system: subjects with Age-Associated Memory Impairment; assay: CDR computerized cognitive test battery, 6-week study in Age-Associated Memory Impairment; assay type: in vivo, human; conditions: for Quality of Episodic Secondary Memory, LS mean difference vs placebo: overall; for Self-Rated Contentment, ANCOVA: p<0.001
Method: A single-center, 6-week, double-blind, randomizes, parallel-group, placebo-controlled, dose-ranging pilot study was performed to evaluate the efficacy, tolerability, and safety of >96% ethyl-EPA in subjects with subjective and objective memory impairment according to generally accepted criteria for Age-Associated Memory Impairment (“AAMI”). The primary objective of the study was to determine the effect of >96% ethyl-EPA 1 g, 2 g, and 4 g daily, compared to placebo, on cognitive performance in subjects with AAMI.
The population for this study was men and women between ages 50 and 70 with self-reported complaints of memory loss, subjective and objective cognitive impairment with a score of at least one standard deviation below that of the mean for age-matched elderly population as determined by the total score of between 13 and 20 from the Paired Associated Learning (“PAL”) subset of the Wechsler Memory Scale, evidence of adequate intellectual function as determined by a scaled score of at least 9 (raw score of at least 32) on the Vocabulary subtest of the Wechsler Adult Intelligence Scale and absence of dementia as determined by a score of 24 or higher on the Mini-Mental State Examination (“MMSE”).
Ninety-four subjects were randomized into one of six groups: 1 g E-EPA daily (n=23), 2 g E-EPA daily (n=24), 4 g E-EPA daily (n=24), 1 g placebo daily (n=7), 2 g placebo daily (n=8), and 4 g placebo daily (n=8). E-EPA was provided as 500 mg soft gel capsules containing >96% E-EPA and 0.2% dl-α-tocopherol as an antioxidant. Placebo capsules contained 467 mg of liquid paraffin and 0.2% dl-a-tocopherol. Ninety-one subjects completed the study. Two subjects in the 2 g E-EPA group and one subject in the 2 g placebo group discontinued the study.
The study consisted of a screening visit, a training visit, and four study visits. At the screening visit, subjects' eligibility was determined through cognitive tests (verbal paired associated learning [PAL] subscale, vocabulary subtest, Memory Assessment Clinics Questionnaire [MAC-Q], mini mental state evaluation [MMSE] and MINI [mini international neuropsychiatric interview; sections 1 and 2 of Diagnostic and Statistical Manual of Mental Disorders, 4th Edition (DSM-IV) plus dysthymia]), haematology, clinical chemistry and 12-lead electrocardiogram (ECG). At the training visit, subjects were shown how to use the CDR computerized system. Subjects took study drug for 6 weeks and on Days 0, 14, 28 and 42, subjects underwent the CDR cognitive test battery.
A selection of tasks from the CDR computerized cognitive assessment system were administered at Visit 2 (training visit), Visit 3 (baseline), Visit 4 (Day 14), Visit 5 (Day 28) and Visit 6 (Day 42). Parallel forms of the tests were presented at each testing session. All tasks were computer-controlled, the information presented on high resolution monitors, and the responses recorded via a response model containing two buttons: one marked ‘no’ and the other ‘yes’. Five CDR composite scores were used as the primary/secondary outcome variables. The task titles were: • Word Presentation • Immediate Word Recall • Picture Presentation • Simple Reaction Time • Digit Vigilance • Choice Reaction Time • Spatial Working Memory • Numeric Working Memory • Delayed Word Recall • Word Recognition • Picture Recognition • Bond-Lader Visual Analogue Scales of Mood and Alertness • Screen, Using the Computer Mouse
Summary statistics were provided for the ITT and Study Per Protocol Populations separately for all composite scores, major and supportive variables. Summary statistics were performed for both the unadjusted and difference from baseline data (i.e. the difference from the time matched predose assessments on Day 0). Summary statistics were calculated by treatment, day and time-point. The summary statistics comprised n, mean, median, SD, standard error of mean (“SEM”), minimum and maximum values. […]

[2] = previous data; standard deviation of 15%; cited from earlier work

## CC/C=C\C/C=C\C/C=C\C/C=C\C/C=C\CCCC(=O)OCC [Ethyl-EPA, all-cis eicosa-5,8,11,14,17-pentaenoic acid ethyl ester]
[1]; ITT
  Continuity of Attention and Digit Vigilance Targets Detected, effect of treatment: no statistically significant effect of treatment
  Immediate and Delayed Word Recall Accuracies, Word and Picture Recognition Sensitivity Indices, effect of treatment: no statistically significant effects of treatment
  Quality of Episodic Secondary Memory, effect of treatment: no statistically significant effect of treatment
  Self-Rated Alertness, effect of treatment: no statistically significant effect of treatment
  Self-Rated Calmness, effect of treatment: no statistically significant effect of treatment
  Self-Rated Contentment, LS mean difference to placebo: no statistically significant effects
  Simple Reaction Time and Digit Vigilance Speed, effect of treatment: no statistically significant effects of treatment
  Speed of Memory and subtasks Spatial and Numeric Working Memory Speeds, Word and Picture Recognition Speeds, effect of treatment: no statistically significant effects of treatment
  Self-Rated Contentment, ANCOVA: statistically significant treatment by day interaction
[1]; ITT, 1, 2, 4 g daily vs placebo, ANCOVA
  Power of Attention, effect of treatment: no statistically significant effect of treatment
[1]; ITT, 1 g, Day 14, p=0.028
  Immediate Word Recall Accuracy, LS mean difference vs placebo: statistically significant decreases
[1]; ITT, 1 g, Day 14 at AM 2, p=0.084
  Picture Recognition Speed, difference vs placebo: trends for benefits
[1]; ITT, 1 g, Day 14 at PM 2, p=0.020
  Immediate Word Recall Accuracy, LS mean difference vs placebo: statistically significant decreases
[1]; ITT, 1 g, Day 28, p=0.024
  Word Recognition Sensitivity Index, LS mean difference vs placebo: statistically significant decreases
[1]; ITT, 1 g, Day 28 at AM 1, p=0.085
  Picture Recognition Speed, difference vs placebo: trends for benefits
[1]; ITT, 1 g, Day 28 at AM 2, p=0.017
  Picture Recognition Sensitivity Index, LS mean difference vs placebo: statistically significant decrease
[1]; ITT, 1 g, Day 28 at PM 2, p=0.040
  Picture Recognition Sensitivity Index, LS mean difference vs placebo: statistically significant decrease
[1]; ITT, 1 g, at AM 1, p=0.040
  Immediate Word Recall Accuracy, LS mean difference vs placebo: statistically significant decreases
[1]; ITT, 1 g, p=0.040
  Quality of Episodic Secondary Memory, LS mean difference vs placebo: statistically significant decreases
[1]; ITT, 2 g, Day 28, p=0.017
  Immediate Word Recall Accuracy, LS mean difference vs placebo: statistically significant decreases
[1]; ITT, 2 g, Day 28, p=0.047
  Self-Rated Alertness, LS mean difference vs placebo: statistically significant decrease in ratings
[1]; ITT, 2 g, Day 28 at AM 1, p=0.006
  Immediate Word Recall Accuracy, LS mean difference vs placebo: statistically significant decreases
[1]; ITT, 2 g, Day 28 at AM 2, p=0.041
  Self-Rated Alertness, LS mean difference vs placebo: statistically significant decrease in ratings
[1]; ITT, 2 g, at AM 1, p=0.028
  Immediate Word Recall Accuracy, LS mean difference vs placebo: statistically significant decreases
[1]; ITT, 2 g, p=0.035
  Quality of Episodic Secondary Memory, LS mean difference vs placebo: statistically significant decreases
[1]; ITT, 4 g, Day 14 at PM 1, p=0.048
  Spatial Working Memory Speed, LS mean difference vs placebo: statistically significant benefit
[1]; ITT, 4 g, Day 28 at PM 2, p=0.030
  Word Recognition Sensitivity Index, LS mean difference vs placebo: statistically significant decrease
[1]; ITT, 4 g, Day 42, p=0.038
  Word Recognition Sensitivity Index, LS mean difference vs placebo: statistically significant decreases
[1]; ITT, 4 g, Day 42 at AM 1, p=0.061
  Spatial Working Memory Speed, LS mean difference vs placebo: trend for a benefit
[1]; ITT, 4 g, at PM 2, p=0.045
  Word Recognition Sensitivity Index, LS mean difference vs placebo: statistically significant decrease
[1]; ITT, any time-point
  Power of Attention, LS mean difference active treatment vs placebo: no LS mean difference
[1]; ITT, p=0.011
  Choice Reaction Time, ANCOVA: statistically significant treatment by day interaction
[1]; ITT, p=0.015
  Spatial Working Memory Sensitivity Index, ANCOVA: statistically significant treatment by day interaction
[1]; ITT, p=0.019
  Quality of Working Memory, ANCOVA: statistically significant treatment by day interaction
[1]; ITT, p=0.089
  Numeric Working Memory Sensitivity Index, ANCOVA: statistical trend for a treatment by day interaction
[1]; Study Per Protocol
  Continuity of Attention, effect of treatment: no statistically significant effect of treatment
[1]; Study Per Protocol, p=0.040
  Digit Vigilance Targets Detected, ANCOVA: statistically significant treatment by time-point interaction
[1]; Study Per-Protocol
  Immediate and Delayed Word Recall Accuracies, Word and Picture Recognition Sensitivity Indices, effect of treatment: no statistically significant effects of treatment
  Power of Attention, effect of treatment: no statistically significant effect of treatment
  Quality of Episodic Secondary Memory, effect of treatment: no statistically significant effects of treatment
  Self-Rated Alertness, effect of treatment: no statistically significant effect of treatment
  Self-Rated Calmness, effect of treatment: no statistically significant effect of treatment
  Self-Rated Contentment, LS mean difference to placebo: no statistically significant effects
  Simple Reaction Time and Digit Vigilance Speed, effect of treatment: no statistically significant effects of treatment
  Speed of Memory and subtasks Spatial and Numeric Working Memory Speed, Word and Picture Recognition Speed, effect of treatment: no statistical significant effects of treatment
  Self-Rated Contentment, ANCOVA: statistically significant treatment by day interaction
[1]; Study Per-Protocol, 1 g, Day 14, p=0.024
  Immediate Word Recall Accuracy, LS mean difference to placebo: statistically significant decreases
[1]; Study Per-Protocol, 1 g, Day 14 at PM 2, p=0.019
  Immediate Word Recall Accuracy, LS mean difference to placebo: statistically significant decreases
[1]; Study Per-Protocol, 1 g, Day 28, p=0.027
  Word Recognition Sensitivity Index, LS mean difference to placebo: statistically significant decreases
[1]; Study Per-Protocol, 1 g, Day 28 at AM 2, p=0.020
  Picture Recognition Sensitivity Index, LS mean difference vs placebo: statistically significant decreases
[1]; Study Per-Protocol, 1 g, Day 28 at PM 2, p=0.026
  Picture Recognition Sensitivity Index, LS mean difference vs placebo: statistically significant decreases
[1]; Study Per-Protocol, 1 g, at AM 1, p=0.038
  Immediate Word Recall Accuracy, LS mean difference to placebo: statistically significant decreases
[1]; Study Per-Protocol, 1 g, at AM 2, p=0.048
  Immediate Word Recall Accuracy, LS mean difference to placebo: statistically significant decreases
[1]; Study Per-Protocol, 1 g, p=0.043
  Quality of Episodic Secondary Memory, LS mean difference vs placebo: statistically significant decreases
[1]; Study Per-Protocol, 2 g, Day 28, p=0.017
  Immediate Word Recall Accuracy, LS mean difference to placebo: statistically significant decreases
[1]; Study Per-Protocol, 2 g, Day 28, p=0.035
  Self-Rated Alertness, LS mean difference vs placebo: statistically significant decrease in ratings
[1]; Study Per-Protocol, 2 g, Day 28 at AM 1, p=0.006
  Immediate Word Recall Accuracy, LS mean difference to placebo: statistically significant decreases
[1]; Study Per-Protocol, 2 g, Day 28 at AM 2, p=0.033
  Self-Rated Alertness, LS mean difference vs placebo: statistically significant decrease in ratings
[1]; Study Per-Protocol, 2 g, at AM 1, p=0.029
  Immediate Word Recall Accuracy, LS mean difference to placebo: statistically significant decreases
[1]; Study Per-Protocol, 2 g, p=0.036
  Quality of Episodic Secondary Memory, LS mean difference vs placebo: statistically significant decreases
[1]; Study Per-Protocol, 4 g, Day 42, p=0.038
  Word Recognition Sensitivity Index, LS mean difference to placebo: statistically significant decreases
[1]; Study Per-Protocol, 4 g, Day 42 at PM 1, p=0.071
  Self-Rated Calmness, LS mean difference vs placebo: statistical trend for an increase in ratings
[1]; Study Per-Protocol, any time-point
  Power of Attention, difference active treatment vs placebo: no difference between active treatment and placebo
[1]; Study Per-Protocol, p=0.013
  Choice Reaction Time, ANCOVA: statistically significant treatment by day interaction
[1]; Study Per-Protocol, p=0.014
  Spatial Working Memory Sensitivity Index, ANCOVA: statistically significant treatment by day interaction
[1]; Study Per-Protocol, p=0.021
  Quality of Working Memory, ANCOVA: statistically significant treatment by day interaction
[1]; post-hoc
  Continuity of Attention, post-hoc vs corresponding placebo: no general pattern of effects
  Quality of Working Memory and Numeric Working Memory Sensitivity Index, post-hoc vs corresponding placebo: only isolated improvements and declines in performance
  Self-Rated Calmness, post-hoc vs corresponding placebo: no differences between active treatment and placebo
[1]; post-hoc, 1 g, Days 14 and 28
  Self-rated Alertness and Self-rated Contentment, post-hoc vs corresponding placebo: decreases in ratings
[1]; post-hoc, 4 g, Day 42
  Choice Reaction Time, post-hoc vs corresponding placebo: superior to placebo at every time point
  Power of Attention, post-hoc vs corresponding placebo: overall benefit versus the corresponding placebo
[1]; post-hoc, 4 g, Day 42, Study PP Population
  Spatial Working Memory Sensitivity Index, post-hoc vs corresponding placebo: overall benefit
[1]; post-hoc, 4 g, PM 2 collapsed across days, several time-points Days 14 and 42
  Simple Reaction Time, post-hoc vs corresponding placebo: improvements in performance
[1]; post-hoc, 4 g, all study days
  Choice Reaction Time, post-hoc vs corresponding placebo: overall benefit versus corresponding placebo
[1]; post-hoc, explained by pre-existing group differences
  Quality of Episodic Secondary Memory and contributing subtasks, post-hoc vs corresponding placebo: a number of decreases
[1]; post-hoc, mostly 1 g
  Speed of Memory subtask measures, post-hoc vs corresponding placebo: some signs of improvement in performance
[2]
  Difference in percent change from baseline in fasting LDL-C between study drug and placebo: 2.2%
